In brackets after ≈: the same amount, converted by molar mass. Read-outs that look alike come from different tables or passages of the source.
What was measured:
Assay in all cases: Antifungal susceptibility testing, NCCLS M27-A2 broth microdilution (yeasts)
Format in all cases: cell-based
[1] = tested on: Cryptococcus neoformans clinical strain; conditions: for inhibition at 0.09 µg/mL / inhibition at 0.19 µg/mL / inhibition at 0.39 µg/mL / inhibition at 0.78 µg/mL / inhibition at 1.56 µg/mL / inhibition at 3.12 µg/mL / inhibition at 6.25 µg/mL / inhibition at 12.5 µg/mL / inhibition at 25 µg/mL / inhibition at 50 µg/mL: read-out: % of growth inhibition
Protocol: (§1) Cabanillasin activity was tested against different fungal human pathogens: ascomycetes yeasts (Candida albicans ATCC 90029, Candida Glabrata ATCC 90030, Candida krusei ATCC 6258 and Candida lusitaniae CBS 6936), basidiomycetes yeasts (Cryptococcus neoformans clinical strain), ascomycetes filamentous fungi (Aspergilus fumigatus clinical strain, Fusarium oxysporum clinical strain) and zygomycetes filamentous fungi (Rhizopus oryzae environemental strain) by the M38-A microdilution method with RPMI 1640 medium (RPMI 1640, MOPS 160 mM, glucose 18 g/L, pH 7) as recommended in the […]. The NCCLS M27-A2 broth microdilution method (NCCLS) was used when yeasts were tested.
(§2) Yeasts and filamentous inoculi were prepared on YPD medium (yeast extract 10 g/L, peptone 10 g/L and glucose 20 g/L) and Malt medium (malt extract 20 g/L) respectively. The densities of inoculi were adjusted by dilution in RPMI 1640 broth to a value ranged from 5.10^2 to 5.10^3 CFU/mL for yeasts isolates and 5.10^3 to 5.10^4 CFU/mL for filamentous fungi. Microdilution trays (96 U-bottom shaped) containing 190 µL fungal inoculum were added with 10 µL Cabanillasin solution (final concentration ranging from 50 to 0.098 mg/L for all fungi). After inoculation of the trays, all microdilution trays were incubated at 35°C in ambient air. The culture absorbance was measured at 600 nm, 24 h and 48 h after the beginning of the experiments for the yeasts and 48 h and 72 h after the beginning of the experiments for filamentous fungi and Cryptococcus neoformans. The activity results correspond to a percentage of growth inhibition ((1-Abs600 nm culture with Cabanillasin)/ Abs600 nm culture without Cabanillasin) x 100.
(§3) The IC50 value is the concentration at which inhibition of growth is equal to 50%. MICs for Candida species were determined at 24 h and 48 h and corresponded to 100% of growth inhibition. Amphotericin B was provided as standard (final concentration ranging from 16 to 0.03 mg/L for all fungi). Experiments were done in duplicate.

[2] = tested on: Candida Glabrata ATCC 90030; conditions: Nakaseomyces glabratus, ATCC90030; for inhibition at 0.09 µg/mL / inhibition at 0.19 µg/mL / inhibition at 0.39 µg/mL / inhibition at 0.78 µg/mL / inhibition at 1.56 µg/mL / inhibition at 3.12 µg/mL / inhibition at 6.25 µg/mL / inhibition at 12.5 µg/mL / inhibition at 25 µg/mL / inhibition at 50 µg/mL: read-out: % of growth inhibition
Protocol: as §1, §2, §3

Candida krusei ATCC 6258 = conditions: Pichia kudriavzevii, ATCC6258; for inhibition at 0.09 µg/mL / inhibition at 0.19 µg/mL / inhibition at 0.39 µg/mL / inhibition at 0.78 µg/mL / inhibition at 1.56 µg/mL / inhibition at 3.12 µg/mL / inhibition at 6.25 µg/mL / inhibition at 12.5 µg/mL / inhibition at 25 µg/mL / inhibition at 50 µg/mL: read-out: % of growth inhibition
Protocol: as §1, §2, §3

[3] = tested on: Candida albicans ATCC 90029; conditions: for inhibition at 0.09 µg/mL: ATCC90029, 0.09 µg/mL; for inhibition at 0.09 µg/mL / inhibition at 0.19 µg/mL / inhibition at 0.39 µg/mL / inhibition at 0.78 µg/mL / inhibition at 1.56 µg/mL / inhibition at 3.12 µg/mL / inhibition at 6.25 µg/mL / inhibition at 12.5 µg/mL / inhibition at 25 µg/mL / inhibition at 50 µg/mL: read-out: % of growth inhibition; for inhibition at 0.19 µg/mL: ATCC90029, 0.19 µg/mL; for inhibition at 0.39 µg/mL: ATCC90029, 0.39 µg/mL; for inhibition at 0.78 µg/mL: ATCC90029, 0.78 µg/mL; for inhibition at 1.56 µg/mL: ATCC90029, 1.56 µg/mL; for inhibition at 3.12 µg/mL: ATCC90029, 3.12 µg/mL; for inhibition at 6.25 µg/mL: ATCC90029, 6.25 µg/mL; for inhibition at 12.5 µg/mL: ATCC90029, 12.5 µg/mL; for inhibition at 25 µg/mL: ATCC90029, 25 µg/mL; for inhibition at 50 µg/mL: ATCC90029, 50 µg/mL
Protocol: as §1, §2, §3

[4] = tested on: Candida lusitaniae CBS 6936; conditions: Clavispora lusitaniae, CBS6936; for inhibition at 0.09 µg/mL / inhibition at 0.19 µg/mL / inhibition at 0.39 µg/mL / inhibition at 0.78 µg/mL / inhibition at 1.56 µg/mL / inhibition at 3.12 µg/mL / inhibition at 6.25 µg/mL / inhibition at 12.5 µg/mL / inhibition at 25 µg/mL / inhibition at 50 µg/mL: read-out: % of growth inhibition
Protocol: as §1, §2, §3

[5] = 24 h of incubation, 100% of growth inhibition

SMILES: CC(=O)NC(=N)NCCCCNC(=N)NCCCCNC(=N)NCCCCNC(=N)NCCCCN [Cabanillasin]
- inhibition at 0.09 µg/mL ([1]; 48 h incubation): 0%
- inhibition at 0.09 µg/mL ([1]; 72 h incubation): 0%
- inhibition at 0.19 µg/mL ([1]; 48 h incubation): 0%
- inhibition at 0.19 µg/mL ([1]; 72 h incubation): 0%
- inhibition at 0.39 µg/mL ([1]; 48 h incubation): 0%
- inhibition at 0.39 µg/mL ([1]; 72 h incubation): 0%
- inhibition at 0.78 µg/mL ([1]; 48 h incubation): 0%
- inhibition at 0.78 µg/mL ([1]; 72 h incubation): 0%
- inhibition at 1.56 µg/mL ([1]; 48 h incubation): 0%
- inhibition at 1.56 µg/mL ([1]; 72 h incubation): 0%
- inhibition at 3.12 µg/mL ([1]; 48 h incubation): 23.8%
- inhibition at 3.12 µg/mL ([1]; 72 h incubation): 0%
- inhibition at 6.25 µg/mL ([1]; 48 h incubation): 32%
- inhibition at 6.25 µg/mL ([1]; 72 h incubation): 0%
- inhibition at 12.5 µg/mL ([1]; 48 h incubation): 47.3%
- inhibition at 12.5 µg/mL ([1]; 72 h incubation): 0%
- inhibition at 25 µg/mL ([1]; 48 h incubation): 65.3%
- inhibition at 25 µg/mL ([1]; 72 h incubation): 0%
- inhibition at 50 µg/mL ([1]; 48 h incubation): 63.8%
- inhibition at 50 µg/mL ([1]; 72 h incubation): 0%
- IC50 ([1]; after 48 h): 25 µg/mL (≈ 48.9 µM)
- IC50 ([1]; after 72 h): > 50 µg/mL
- inhibition at 0.09 µg/mL ([2]; 24 h incubation): 0%
- inhibition at 0.09 µg/mL ([2]; 48 h incubation): 0%
- inhibition at 0.19 µg/mL ([2]; 24 h incubation): 5.5%
- inhibition at 0.19 µg/mL ([2]; 48 h incubation): 0%
- inhibition at 0.39 µg/mL ([2]; 24 h incubation): 11.4%
- inhibition at 0.39 µg/mL ([2]; 48 h incubation): 0%
- inhibition at 0.78 µg/mL ([2]; 24 h incubation): 15.5%
- inhibition at 0.78 µg/mL ([2]; 48 h incubation): 0%
- inhibition at 1.56 µg/mL ([2]; 24 h incubation): 28%
- inhibition at 1.56 µg/mL ([2]; 48 h incubation): 0%
- inhibition at 3.12 µg/mL ([2]; 24 h incubation): 31%
- inhibition at 3.12 µg/mL ([2]; 48 h incubation): 0%
- inhibition at 6.25 µg/mL ([2]; 24 h incubation): 49.3%
- inhibition at 6.25 µg/mL ([2]; 48 h incubation): 0%
- inhibition at 12.5 µg/mL ([2]; 24 h incubation): 66.2%
- inhibition at 12.5 µg/mL ([2]; 48 h incubation): 18.5%
- inhibition at 25 µg/mL ([2]; 24 h incubation): 61.4%
- inhibition at 25 µg/mL ([2]; 48 h incubation): 44%
- inhibition at 50 µg/mL ([2]; 24 h incubation): 59%
- inhibition at 50 µg/mL ([2]; 48 h incubation): 57%
- IC50 ([2]; 24 h of incubation): 6.25 µg/mL (≈ 12.2 µM)
- inhibition at 0.09 µg/mL (Candida krusei ATCC 6258; 24 h incubation): 0%
- inhibition at 0.09 µg/mL (Candida krusei ATCC 6258; 48 h incubation): 0%
- inhibition at 0.19 µg/mL (Candida krusei ATCC 6258; 24 h incubation): 0%
- inhibition at 0.19 µg/mL (Candida krusei ATCC 6258; 48 h incubation): 0%
- inhibition at 0.39 µg/mL (Candida krusei ATCC 6258; 24 h incubation): 0%
- inhibition at 0.39 µg/mL (Candida krusei ATCC 6258; 48 h incubation): 0%
- inhibition at 0.78 µg/mL (Candida krusei ATCC 6258; 24 h incubation): 0%
- inhibition at 0.78 µg/mL (Candida krusei ATCC 6258; 48 h incubation): 0%
- inhibition at 1.56 µg/mL (Candida krusei ATCC 6258; 24 h incubation): 0%
- inhibition at 1.56 µg/mL (Candida krusei ATCC 6258; 48 h incubation): 0%
- inhibition at 3.12 µg/mL (Candida krusei ATCC 6258; 24 h incubation): 9%
- inhibition at 3.12 µg/mL (Candida krusei ATCC 6258; 48 h incubation): 0%
- inhibition at 6.25 µg/mL (Candida krusei ATCC 6258; 24 h incubation): 79%
- inhibition at 6.25 µg/mL (Candida krusei ATCC 6258; 48 h incubation): 31.2%
- inhibition at 12.5 µg/mL (Candida krusei ATCC 6258; 24 h incubation): 91%
- inhibition at 12.5 µg/mL (Candida krusei ATCC 6258; 48 h incubation): 83%
- inhibition at 25 µg/mL (Candida krusei ATCC 6258; 24 h incubation): 100%
- inhibition at 25 µg/mL (Candida krusei ATCC 6258; 48 h incubation): 88.5%
- inhibition at 50 µg/mL (Candida krusei ATCC 6258; 24 h incubation): 100%
- inhibition at 50 µg/mL (Candida krusei ATCC 6258; 48 h incubation): 92.9%
- IC50 (Candida krusei ATCC 6258; 24 h of incubation): 6.25 µg/mL (≈ 12.2 µM)
- MIC (Candida krusei ATCC 6258; [5]): 25 µg/mL (≈ 48.9 µM)
- inhibition at 0.09 µg/mL ([3]; 24 h incubation): 34%
- inhibition at 0.09 µg/mL ([3]; 48 h incubation): 0%
- inhibition at 0.19 µg/mL ([3]; 24 h incubation): 37%
- inhibition at 0.19 µg/mL ([3]; 48 h incubation): 0%
- inhibition at 0.39 µg/mL ([3]; 24 h incubation): 34%
- inhibition at 0.39 µg/mL ([3]; 48 h incubation): 0%
- inhibition at 0.78 µg/mL ([3]; 24 h incubation): 50.5%
- inhibition at 0.78 µg/mL ([3]; 48 h incubation): 0%
- inhibition at 1.56 µg/mL ([3]; 24 h incubation): 46.3%
- inhibition at 1.56 µg/mL ([3]; 48 h incubation): 0%
- inhibition at 3.12 µg/mL ([3]; 24 h incubation): 45.4%
- inhibition at 3.12 µg/mL ([3]; 48 h incubation): 0%
- inhibition at 6.25 µg/mL ([3]; 24 h incubation): 47.7%
- inhibition at 6.25 µg/mL ([3]; 48 h incubation): 0%
- inhibition at 12.5 µg/mL ([3]; 24 h incubation): 70.7%
- inhibition at 12.5 µg/mL ([3]; 48 h incubation): 0%
- inhibition at 25 µg/mL ([3]; 24 h incubation): 71%
- inhibition at 25 µg/mL ([3]; 48 h incubation): 0%
- inhibition at 50 µg/mL ([3]; 24 h incubation): 81%
- inhibition at 50 µg/mL ([3]; 48 h incubation): 18%
- IC50 ([3]; ATCC90029, 24 h of incubation): 0.78 µg/mL (≈ 1.52 µM)
- inhibition at 0.09 µg/mL ([4]; 24 h incubation): 11.7%
- inhibition at 0.09 µg/mL ([4]; 48 h incubation): 0%
- inhibition at 0.19 µg/mL ([4]; 24 h incubation): 14.5%
- inhibition at 0.19 µg/mL ([4]; 48 h incubation): 0%
- inhibition at 0.39 µg/mL ([4]; 24 h incubation): 11.5%
- inhibition at 0.39 µg/mL ([4]; 48 h incubation): 0%
- inhibition at 0.78 µg/mL ([4]; 24 h incubation): 20.2%
- inhibition at 0.78 µg/mL ([4]; 48 h incubation): 0%
- inhibition at 1.56 µg/mL ([4]; 24 h incubation): 64.8%
- inhibition at 1.56 µg/mL ([4]; 48 h incubation): 0%
- inhibition at 3.12 µg/mL ([4]; 24 h incubation): 86.7%
- inhibition at 3.12 µg/mL ([4]; 48 h incubation): 57%
- inhibition at 6.25 µg/mL ([4]; 24 h incubation): 94.7%
- inhibition at 6.25 µg/mL ([4]; 48 h incubation): 74.6%
- inhibition at 12.5 µg/mL ([4]; 24 h incubation): 97.7%
- inhibition at 12.5 µg/mL ([4]; 48 h incubation): 86.1%
- inhibition at 25 µg/mL ([4]; 24 h incubation): 100%
- inhibition at 25 µg/mL ([4]; 48 h incubation): 95.9%
- inhibition at 50 µg/mL ([4]; 24 h incubation): 100%
- inhibition at 50 µg/mL ([4]; 48 h incubation): 100%
- IC50 ([4]; 24 h of incubation): 1.56 µg/mL (≈ 3.05 µM)
- MIC [4, 5]: 25 µg/mL (≈ 48.9 µM)

From EP2468718A1, “Cabanillasin, a new antifungal compound, produced by entomopathogenic xenorhabdus cabanillasii” (Nosopharm, priority 2010, dated 2012)
